# Measured values reported in patent publication US11312712B2, “Azabenzimidazoles and their use as AMPA receptor modulators” (Janssen Pharmaceutica NV, priority 2015, dated 2022).
# Target: GluA1o-γ8 (GRIA1o-CACNG8 fusion construct) (Homo sapiens (Human), UniProt P42261+Q8WXS5)
# Experiment: Calcium flux assay (FLIPR), inhibition of TARP γ8 dependent AMPA receptor activity
# Assay type: cell-based
# Settings: GluA1o-γ8 (GRIA1o-CACNG8 fusion) in HEK293 cells, calcium flux after 15 μM glutamate
# Summary of the method: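 Glutamate (15 μM) was added to a stable HEK293 line carrying the GluA1o–γ8 fusion, which had been preincubated with compound and calcium dye in HEPES buffer, pH 7.4. Normalized FLIPR fluorescence (no compound vs 10 μM CP465022) was fitted with four parameters; pIC50 is the midpoint's negative log.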
# Chain of GluA1o-γ8 (GRIA1o-CACNG8 fusion construct) (P42261 other isoform, or with tags, fused parts or gaps): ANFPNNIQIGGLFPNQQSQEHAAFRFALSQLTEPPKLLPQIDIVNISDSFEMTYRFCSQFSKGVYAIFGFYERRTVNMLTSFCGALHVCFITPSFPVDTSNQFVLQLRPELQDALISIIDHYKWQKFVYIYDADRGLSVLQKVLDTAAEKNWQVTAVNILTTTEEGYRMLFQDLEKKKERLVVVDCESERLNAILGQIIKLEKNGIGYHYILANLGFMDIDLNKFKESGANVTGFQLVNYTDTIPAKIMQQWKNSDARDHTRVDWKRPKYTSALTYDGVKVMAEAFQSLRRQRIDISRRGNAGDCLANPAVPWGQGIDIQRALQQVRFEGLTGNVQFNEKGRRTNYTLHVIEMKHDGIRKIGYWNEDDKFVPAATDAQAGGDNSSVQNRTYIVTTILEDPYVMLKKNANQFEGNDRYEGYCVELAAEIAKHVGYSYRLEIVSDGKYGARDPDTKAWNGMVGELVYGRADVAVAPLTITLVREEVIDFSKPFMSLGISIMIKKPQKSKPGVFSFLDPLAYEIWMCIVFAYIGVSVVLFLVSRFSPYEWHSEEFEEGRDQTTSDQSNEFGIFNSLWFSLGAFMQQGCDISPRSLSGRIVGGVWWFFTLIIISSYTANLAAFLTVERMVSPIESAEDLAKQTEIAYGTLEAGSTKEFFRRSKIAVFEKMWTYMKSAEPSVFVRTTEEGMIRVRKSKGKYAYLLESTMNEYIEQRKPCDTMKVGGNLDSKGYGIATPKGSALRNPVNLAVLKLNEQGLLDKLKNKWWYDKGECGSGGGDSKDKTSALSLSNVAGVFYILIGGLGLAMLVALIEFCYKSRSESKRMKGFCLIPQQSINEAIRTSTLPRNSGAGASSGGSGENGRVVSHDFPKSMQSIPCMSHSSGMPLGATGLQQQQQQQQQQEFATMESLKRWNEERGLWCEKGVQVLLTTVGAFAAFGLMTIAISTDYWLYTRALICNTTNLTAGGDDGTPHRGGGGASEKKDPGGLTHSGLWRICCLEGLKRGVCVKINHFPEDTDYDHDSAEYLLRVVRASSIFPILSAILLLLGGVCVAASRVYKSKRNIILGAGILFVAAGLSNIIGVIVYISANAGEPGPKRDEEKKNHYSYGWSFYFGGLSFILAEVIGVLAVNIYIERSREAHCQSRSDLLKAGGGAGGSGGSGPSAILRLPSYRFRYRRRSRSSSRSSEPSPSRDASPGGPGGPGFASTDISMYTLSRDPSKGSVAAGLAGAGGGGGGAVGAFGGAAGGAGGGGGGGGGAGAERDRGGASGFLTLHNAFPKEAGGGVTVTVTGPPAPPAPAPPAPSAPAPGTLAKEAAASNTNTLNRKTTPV
row,IC50 [nM],SMILES
1,79.4,"O=C(Nc1ccccc1)c1nc2ccc(C(F)(F)F)nc2n1-c1ccc2[nH]ncc2c1 [Example 85, 3-(1H-Indazol-5-yl)-N-phenyl-5-(trifluoromethyl)imidazo[4,5-b]pyridine-2-carboxamide]"
2,0.794,"Fc1ccc(-c2nc3ccc(C4CC4)nc3n2-c2ccc3[nH]ncc3c2)cc1 [Example 86, 5-Cyclopropyl-2-(4-fluorophenyl)-3-(1H-indazol-5-yl)imidazo[4,5-b]pyridine]"
3,79.4,"Cc1ccc2nc(C3CC3)n(-c3ccc4c(c3)CC(=O)N4)c2n1 [Example 87, 5-(2-Cyclopropyl-5-methyl-imidazo[4,5-b]pyridin-3-yl)indolin-2-one]"
4,1.58,"O=C1Cc2cc(-n3c(C(F)(F)F)nc4ccc(C(F)(F)F)nc43)ccc2N1 [Example 88, 5-[2,5-Bis(trifluoromethyl)imidazo[4,5-b]pyridin-3-yl]indolin-2-one]"
5,1.26,"FC(F)(F)c1ccc2nc(C(F)(F)F)n(-c3ccc4[nH]ncc4c3)c2n1 [Example 89, 3-(1H-Indazol-5-yl)-2,5-bis(trifluoromethyl)imidazo[4,5-b]pyridine]"
6,3.16,"FC(F)c1nc2ccc(C(F)(F)F)nc2n1-c1ccc2[nH]ncc2c1 [Example 90, 2-(Difluoromethyl)-3-(1H-indazol-5-yl)-5-(trifluoromethyl)imidazo[4,5-b]pyridine]"
7,3.98,"FC(F)(F)c1ccc2nc(-c3cccs3)n(-c3ccc4[nH]ncc4c3)c2n1 [Example 91, 3-(1H-Indazol-5-yl)-2-(2-thienyl)-5-(trifluoromethyl)imidazo[4,5-b]pyridine]"
8,5.01,"FC(F)(F)c1ccc2nc(-c3ccco3)n(-c3ccc4[nH]ncc4c3)c2n1 [Example 92, 2-(2-Furyl)-3-(1H-indazol-5-yl)-5-(trifluoromethyl)imidazo[4,5-b]pyridine]"
9,7.94,"CC(F)(F)c1nc2ccc(C(F)(F)F)nc2n1-c1ccc2c(c1)CC(=O)N2 [Example 93, 5-[2-(1,1-Difluoroethyl)-5-(trifluoromethyl)imidazo[4,5-b]pyridin-3-yl]indolin-2-one]"
10,50.1,"O=C1Cc2cc(-n3c(C(F)F)nc4ccc(C(F)(F)F)nc43)ccc2N1 [Example 94, 5-[2-(Difluoromethyl)-5-(trifluoromethyl)imidazo[4,5-b]pyridin-3-yl]indolin-2-one]"
11,39.8,"O=C1Cc2cc(-n3c(C4CC4)nc4ccc(Cl)nc43)ccc2N1 [Example 95, 5-(5-Chloro-2-cyclopropyl-imidazo[4,5-b]pyridin-3-yl)indolin-2-one]"
12,251,"CC(C)(C)Cc1nc2ccc(C(F)(F)F)nc2n1-c1ccc2c(c1)CC(=O)N2 [Example 97, 5-[2-(2,2-Dimethylpropyl)-5-(trifluoromethyl)imidazo[4,5-b]pyridin-3-yl]indolin-2-one]"
13,63.1,"Cc1nc2ccc(C(F)(F)F)nc2n1-c1ccc2[nH]ncc2c1 [Example 98, 3-(1H-Indazol-5-yl)-2-methyl-5-(trifluoromethyl)imidazo[4,5-b]pyridine]"
14,12.6,"CCc1nc2ccc(C(F)(F)F)nc2n1-c1ccc2c(c1)CC(=O)N2 [Example 99, 5-[2-Ethyl-5-(trifluoromethyl)imidazo[4,5-b]pyridin-3-yl]indolin-2-one]"
15,25.1,"CC(C)Cc1nc2ccc(C(F)(F)F)nc2n1-c1ccc2[nH]ncc2c1 [Example 101, 3-(1H-Indazol-5-yl)-2-isobutyl-5-(trifluoromethyl)imidazo[4,5-b]pyridine]"
16,1.58,"FC(F)(F)c1ccc2nc(C3CCC3)n(-c3ccc4[nH]ncc4c3)c2n1 [Example 103, 2-Cyclobutyl-3-(1H-indazol-5-yl)-5-(trifluoromethyl)imidazo[4,5-b]pyridine]"
17,5.01,"FC(F)(F)c1ccc2nc(C3CCCC3)n(-c3ccc4[nH]ncc4c3)c2n1 [Example 104, 2-Cyclopentyl-3-(1H-indazol-5-yl)-5-(trifluoromethyl)imidazo[4,5-b]pyridine]"
